In patent US9233127B2, “Compositions and methods for CXCR4 signaling and umbilical cord blood stem cell engraftment” (University of Virginia Patent Foundation, priority 2012, dated 2016):

Experiments:
Assay type in all cases: cell-based, human
UCB and BM CD34+ cells = assay: MMP secretion and trans-Matrigel migration of primed CD34+ cells; settings: UCB and BM CD34+ cells primed with C3a
CD34+ cells = assay: Transwell chemotaxis of CD34+ cells to an SDF-1 gradient (priming)
Procedure: (§1) FIG. 11A-B—Effect of SLP and its components on chemotaxis of CD34^+ cells. Panel A: Chemotaxis of BM CD34^+ cells towards medium alone (control), SDF-1 low (10 ng/mL) alone, SLP (combined SLP from three patients), SDF-1 low+SLP, and SDF-1 high (300 ng/mL). Data are pooled from quadruplicate samples from three independent experiments. *p<0.00001. Panel B: Chemotaxis of UCB CD34^+ cells to medium alone (control), SDF-1 low (10 ng/mL) alone and SDF-1 low (10 ng/mL)+uPAR (1 μg/mL) or +ICAM (1 μg/mL) or +VCAM (1 μg/mL) or +FN (2 μg/mL), or +FG (4 μg/mL) or +C3a (1 μg/mL). Data are pooled from quadruplicate samples from three independent experiments. * p<0.00001.
Chemotaxis of CD34^+ cells to medium alone (control), C3a (1 μg/ml), C3adesArg (1 μg/ml), SDF-1 low (10 ng/mL) alone, and SDF-1 low (10 ng/mL)+C3a low (0.1 μg/ml) or SDF-1 low (10 ng/mL)+C3a (1 μg/ml) or SDF-1 low (10 ng/mL)+C3adesArg (1 μg/ml). Data are pooled from quadruplicate samples from three independent experiments.* p<0.00001.
FIG. 13A-B—Chemotaxis of cells to an SDF-1 gradient is lipid raft-dependent. Panel A: Chemotaxis of CD34^+ cells to medium alone (control), SDF-1 (300 ng/mL) and SDF-1 (300 ng/mL) after preincubation for 1 hr with Amphotericin (10 μg/mL) or Nystatin (50 μg/mL). Cells were collected after chemotaxis from the lower chambers and plated in a clonogenic assay. The number of CFU-GM and BFU-E colonies formed by harvested cells is shown as a percentage of control values. Data are pooled from quadruplicate samples from three independent experiments. *p<0.0001. Panel B: Chemotaxis of CD34^+ cells towards medium alone (control), SDF-1 low (10 ng/mL) alone, or SDF-1 low with cells exposed to C3a (1 μg/mL). Cells pretreated before chemotaxis for 1 hr with MβCD (2.5 mM) are shown as gray bars. Data are pooled from quadruplicate samples from three independent experiments. * p<0.00001.
HSPCs from the mPB engraft faster compared to HSPCs aspirated from BM. To test the hypothesis that mPB-derived HSPCs are primed in their responses to SDF-1 by molecules present in SLP, we pooled together SLP from three patients and exposed BM or UCB CD34^+ cells to the SLP during chemotaxis to a low (10 ng/mL) dose of SDF-1.
To address this issue further, the formation of rafts in the cells was perturbed by MβCD, which depletes cholesterol from the cell membrane. The CD34^+ cells were pre-incubated with MβCD for 1 hr. Chemotaxis to a low dose of SDF-1 in the presence of C3a (in the upper chambers) was evaluated.

UCB CD34+ cells = assay: Transwell chemotaxis of UCB CD34+ cells to SDF-1 (priming)
Procedure: as §1
An increased migration of UCB-derived CD34^+ cells, as compared to BM and mPB CD34^+ cells was reported in transwell migration assays was previously reported. However, we noticed large inter-individual differences in the in vitro migratory ability of UCB CD34^+ cells, ranging from 1.1% to 14.3% for spontaneous migration and 3.1% to 62.3% for SDF-1-induced (300 ng/mL) migration. The lower migratory capacity in vitro of UCB-derived CD34^+ cells was not due to lower expression of CXCR4, but likely reflects the decreased migratory behavior of these cells. […] Based on this, we postulate that UCB HSPC responsiveness to an SDF-1 gradient varies with each collected UCB unit and that, in cases when responsiveness is low, UCB HSPCs should be identified and primed before infusion.
Moreover, as SLP contains several components that potentially could prime the responses of CD34^+ cells, (Example 2, FIG. 11, panel B) the most important being PMV and activated complement proteins such as anaphylatoxin C3a, soluble VCAM-1, soluble ICAM-1, uPAR, FG, and FN, we evaluated whether these factors could induce the chemotaxis of HSPCs when used alone. […] We also examined whether FG, FN, soluble VCAM-1, soluble ICAM-1, uPAR, and C3a prime HSPCs in their responses to SDF-1. […] To determine whether this also affects UCB CD34^+ clonogenic progenitors, UCB CD34^+ cells were collected from the lower chambers after the chemotaxis assay and plated in methylcellulose cultures. […] Moreover, a similar effect for the established hematopoietic cell lines Molt 4, Nalm-6, and THP-1 was also found (data not shown).

## C3a: 77 amino acid residue protein derived from the human complement C3a precursor; SEQ ID NO:1
UCB and BM CD34+ cells
  MMP-9 and MMP-2 secretion: significantly increase
  trans-Matrigel migration toward a low dose of SDF-1: significantly increase
CD34+ cells; SDF-1 low 10 ng/mL, C3a or C3adesArg 1 μg/ml
  chemotaxis of human CD34+ cells to low-threshold doses of SDF-1: potentiate (prime) chemotaxis
CD34+ cells; no SDF-1, 1 μg/ml
  chemoattraction of CD34+ cells by the C3 cleavage fragment on its own: neither C3 cleavage fragments chemoattract
UCB CD34+ cells
  SDF-1-mediated transwell cell migration of C3a primed UCB CD34+ HSC: enhanced
UCB CD34+ cells; UCB-derived CD34+ cells exposed/primed
  responsiveness of UCB cells to SDF-1 gradient: significantly increase the responsiveness
UCB CD34+ cells; added to lower chambers with SDF-1 10 ng/mL, uPAR, ICAM, VCAM, C3a 1 μg/mL, FN 2 μg/mL, FG 4 μg/mL
  chemotactic response of UCB CD34+ cells to SDF-1: increased the chemotactic response
UCB CD34+ cells; without SDF-1
  induction of chemotaxis of HSPCs when used alone: no evidence that they did
